Experimental data taken from the NIST ThermoML archive (doi:10.1007/s10765-006-0095-5).

Columns and labels:
[1] = xn = mol fraction of the nth substance listed; settings: 101 kPa, Liquid
[2] = refractive index (Na D-line) (dimensionless); xn = mol fraction of the nth substance listed; settings: 101 kPa, Liquid

CCN(CC)CC [triethylamine] + c1ccccc1
Settings	mass density, [1] [kg/m3]	refractive index, [2]
278.15 K, x2 = 0.1145	751.3	1.4149
278.15 K, x2 = 0.2043	759.4	1.4197
278.15 K, x2 = 0.3005	769.2	1.4261
278.15 K, x2 = 0.4005	780.6	1.4336
278.15 K, x2 = 0.5023	793.6	1.4421
278.15 K, x2 = 0.6037	808.1	1.4518
278.15 K, x2 = 0.7035	824.2	1.4625
278.15 K, x2 = 0.8079	843.9	1.4756
278.15 K, x2 = 0.9069	866.2	1.4902
283.15 K, x2 = 0.1145	747.4	1.4133
283.15 K, x2 = 0.2043	755.5	1.418
283.15 K, x2 = 0.3005	765.4	1.4243
283.15 K, x2 = 0.4005	776.9	1.4318
283.15 K, x2 = 0.5023	790	1.4404
283.15 K, x2 = 0.6037	804.6	1.4501
283.15 K, x2 = 0.7035	821	1.4609
283.15 K, x2 = 0.8079	841	1.474
283.15 K, x2 = 0.9069	863.5	1.4886
288.15 K, x2 = 0.1145	743.3	1.4113
288.15 K, x2 = 0.2043	751.5	1.416
288.15 K, x2 = 0.3005	761.4	1.4224
288.15 K, x2 = 0.4005	772.9	1.43
288.15 K, x2 = 0.5023	786	1.4387
288.15 K, x2 = 0.6037	800.7	1.4485
288.15 K, x2 = 0.7035	817.2	1.4594
288.15 K, x2 = 0.8079	837.4	1.4727
288.15 K, x2 = 0.9069	859.9	1.4872
293.15 K, x2 = 0.1145	738.4	1.409
293.15 K, x2 = 0.2043	746.8	1.4137
293.15 K, x2 = 0.3005	756.7	1.4201
293.15 K, x2 = 0.4005	768.2	1.4278
293.15 K, x2 = 0.5023	781.4	1.4366
293.15 K, x2 = 0.6037	796.1	1.4465
293.15 K, x2 = 0.7035	812.7	1.4576
293.15 K, x2 = 0.8079	833.1	1.471
293.15 K, x2 = 0.9069	855.6	1.4856
298.15 K, x2 = 0	723.4	–
298.15 K, x2 = 0.1145	733.4	1.4062
298.15 K, x2 = 0.2043	741.8	1.411
298.15 K, x2 = 0.3005	751.7	1.4173
298.15 K, x2 = 0.4005	763.1	1.425
298.15 K, x2 = 0.5023	776.1	1.4338
298.15 K, x2 = 0.6037	790.7	1.4438
298.15 K, x2 = 0.7035	807.2	1.4549
298.15 K, x2 = 0.8079	827.4	1.4683
298.15 K, x2 = 0.9069	849.6	1.4829
303.15 K, x2 = 0	717.9	–
303.15 K, x2 = 0.1145	728.2	1.4038
303.15 K, x2 = 0.2043	737	1.4088
303.15 K, x2 = 0.3005	747.1	1.4151
303.15 K, x2 = 0.4005	758.7	1.4228
303.15 K, x2 = 0.5023	772	1.4317
303.15 K, x2 = 0.6037	786.8	1.4418
303.15 K, x2 = 0.7035	803.6	1.4531
303.15 K, x2 = 0.8079	824.2	1.4666
303.15 K, x2 = 0.9069	846.8	1.4812
308.15 K, x2 = 0	712.9	–
308.15 K, x2 = 0.1145	723.4	1.4009
308.15 K, x2 = 0.2043	732.3	1.4061
308.15 K, x2 = 0.3005	742.4	1.4125
308.15 K, x2 = 0.4005	754	1.4203
308.15 K, x2 = 0.5023	767.3	1.4293
308.15 K, x2 = 0.6037	782.1	1.4395
308.15 K, x2 = 0.7035	799	1.451
308.15 K, x2 = 0.8079	819.6	1.4647
308.15 K, x2 = 0.9069	842.1	1.4795
313.15 K, x2 = 0	708.3	–
313.15 K, x2 = 0.1145	718.9	1.3988
313.15 K, x2 = 0.2043	727.9	1.4043
313.15 K, x2 = 0.3005	738.1	1.4107
313.15 K, x2 = 0.4005	749.7	1.4185
313.15 K, x2 = 0.5023	762.9	1.4275
313.15 K, x2 = 0.6037	777.8	1.4378
313.15 K, x2 = 0.7035	794.7	1.4495
313.15 K, x2 = 0.8079	815.4	1.4632
313.15 K, x2 = 0.9069	837.8	1.4779
318.15 K, x2 = 0	701.6	–
318.15 K, x2 = 0.1145	712.6	1.3961
318.15 K, x2 = 0.2043	721.7	1.4017
318.15 K, x2 = 0.3005	732.1	1.4082
318.15 K, x2 = 0.4005	743.9	1.4161
318.15 K, x2 = 0.5023	757.2	1.4252
318.15 K, x2 = 0.6037	772.3	1.4356
318.15 K, x2 = 0.7035	789.5	1.4474
318.15 K, x2 = 0.8079	810.5	1.4613
318.15 K, x2 = 0.9069	833.1	1.4759

CCCCN(CCCC)CCCC [tributylamine] + c1ccccc1
Settings	mass density, [1] [kg/m3]	refractive index, [2]
278.15 K, x2 = 0.0702	790.1	1.4425
278.15 K, x2 = 0.1162	791.1	1.4495
278.15 K, x2 = 0.1687	792.5	1.4566
278.15 K, x2 = 0.2383	794.9	1.4636
278.15 K, x2 = 0.3091	797.7	1.4707
278.15 K, x2 = 0.4032	802.2	1.4779
278.15 K, x2 = 0.5043	808.5	1.485
278.15 K, x2 = 0.6492	821.3	1.4922
278.15 K, x2 = 0.8251	846.8	1.4994
283.15 K, x2 = 0.0702	786.7	1.4414
283.15 K, x2 = 0.1162	787.8	1.4485
283.15 K, x2 = 0.1687	789.3	1.4557
283.15 K, x2 = 0.2383	791.8	1.4628
283.15 K, x2 = 0.3091	794.6	1.47
283.15 K, x2 = 0.4032	799.2	1.4771
283.15 K, x2 = 0.5043	805.6	1.4842
283.15 K, x2 = 0.6492	818.5	1.4914
283.15 K, x2 = 0.8251	844.1	1.4985
288.15 K, x2 = 0.0702	783.2	1.4406
288.15 K, x2 = 0.1162	784.4	1.448
288.15 K, x2 = 0.1687	786	1.4551
288.15 K, x2 = 0.2383	788.5	1.4621
288.15 K, x2 = 0.3091	791.3	1.4692
288.15 K, x2 = 0.4032	795.9	1.4763
288.15 K, x2 = 0.5043	802.3	1.4834
288.15 K, x2 = 0.6492	815.2	1.4905
288.15 K, x2 = 0.8251	840.8	1.4976
293.15 K, x2 = 0.0702	779.9	1.4394
293.15 K, x2 = 0.1162	781.1	1.4466
293.15 K, x2 = 0.1687	782.7	1.4538
293.15 K, x2 = 0.2383	785.3	1.4609
293.15 K, x2 = 0.3091	788.1	1.4681
293.15 K, x2 = 0.4032	792.7	1.4752
293.15 K, x2 = 0.5043	799	1.4824
293.15 K, x2 = 0.6492	811.8	1.4896
293.15 K, x2 = 0.8251	837.1	1.4967
298.15 K, x2 = 0	774.3	–
298.15 K, x2 = 0.0702	775.6	1.4385
298.15 K, x2 = 0.1162	776.9	1.4456
298.15 K, x2 = 0.1687	778.5	1.4527
298.15 K, x2 = 0.2383	781	1.4602
298.15 K, x2 = 0.3091	783.8	1.4671
298.15 K, x2 = 0.4032	788.3	1.4742
298.15 K, x2 = 0.5043	794.5	1.4816
298.15 K, x2 = 0.6492	807	1.4881
298.15 K, x2 = 0.8251	831.6	1.4951
303.15 K, x2 = 0	770.8	–
303.15 K, x2 = 0.0702	772.5	1.4383
303.15 K, x2 = 0.1162	773.8	1.4454
303.15 K, x2 = 0.1687	775.4	1.4524
303.15 K, x2 = 0.2383	777.9	1.46
303.15 K, x2 = 0.3091	780.8	1.4667
303.15 K, x2 = 0.4032	785.4	1.474
303.15 K, x2 = 0.5043	791.6	1.4812
303.15 K, x2 = 0.6492	804.3	1.4876
303.15 K, x2 = 0.8251	829	1.4946
308.15 K, x2 = 0	767.2	–
308.15 K, x2 = 0.0702	769.1	1.4374
308.15 K, x2 = 0.1162	770.4	1.4443
308.15 K, x2 = 0.1687	771.9	1.4514
308.15 K, x2 = 0.2383	774.4	1.4589
308.15 K, x2 = 0.3091	777.3	1.4658
308.15 K, x2 = 0.4032	781.9	1.4733
308.15 K, x2 = 0.5043	788.1	1.4803
308.15 K, x2 = 0.6492	800.6	1.4868
308.15 K, x2 = 0.8251	824.9	1.4936
313.15 K, x2 = 0	763.6	–
313.15 K, x2 = 0.0702	765.5	1.4366
313.15 K, x2 = 0.1162	766.8	1.4438
313.15 K, x2 = 0.1687	768.4	1.4508
313.15 K, x2 = 0.2383	770.9	1.4581
313.15 K, x2 = 0.3091	773.8	1.465
313.15 K, x2 = 0.4032	778.4	1.4726
313.15 K, x2 = 0.5043	784.5	1.4795
313.15 K, x2 = 0.6492	797	1.486
313.15 K, x2 = 0.8251	821.1	1.4928
318.15 K, x2 = 0	759.8	–
318.15 K, x2 = 0.0702	761.8	1.4358
318.15 K, x2 = 0.1162	763.1	1.4431
318.15 K, x2 = 0.1687	764.8	1.45
318.15 K, x2 = 0.2383	767.2	1.4575
318.15 K, x2 = 0.3091	770.1	1.4643
318.15 K, x2 = 0.4032	774.7	1.4718
318.15 K, x2 = 0.5043	780.8	1.4788
318.15 K, x2 = 0.6492	793.3	1.4853
318.15 K, x2 = 0.8251	817.2	1.492
